# Experimental data taken from publication PMC9363195, “Preclinical Pharmacokinetics, Biodistribution, and Acute Toxicity Evaluation of Caerin 1.9 Peptide in Sprague Dawley Rats” (Evidence-based Complementary and Alternative Medicine : eCAM, 2022).
# Peptide text beside a SMILES is read from it.
# Test system: SD rats
# Assay: Gross necropsy and weight of vital organs in acute toxicity study
# Type: in vivo, Sprague Dawley rats
# Conditions: for Adrenals, absolute weight / Body weight / Brain, absolute weight / Heart, absolute weight / Kidneys, absolute weight / Liver, absolute weight / Ovaries, absolute weight / Spleen, absolute weight / Thymus, absolute weight / Thyroid, absolute weight / Uterus, absolute weight / Epididymides, absolute weight / Testis, absolute weight: day 15, mean ± SD
# Experimental: Forty SD rats (20 males and 20 females) were randomly divided into 4 groups (Figure 1). All rats were given F3 once on the day of the experiment.
# Twelve SD rats (6 males, 6 females) were given a daily subcutaneous injection of F3 at a dose of 10.0 mg/kg for consecutive 14 days. The first day of administration was recorded as day 1.
# For 14 days, the body weight was measured before F3 administration on the first day of the experiment and once a week thereafter, with additional measurements on the day before and on the day of the planned autopsy. Food intake was recorded once a week. The rats were anesthetized by inhalation of 70% CO2/30% O2 before dissection, and blood samples were taken for hematology and biochemical analysis. The collected tissue was weighed and preserved for pathological examination.
# After blood was collected at the predetermined time points, all rats were euthanized and subjected to a comprehensive general autopsy, which included a thorough examination of the external surface of the body, all foramen, cranial cavity, external surface of the brain, chest, abdomen, pelvic cavity, viscera, cervix, and genitalia. The adrenal gland, brain (brain, cerebellum, and brain stem), epididymis, heart, kidney, liver, ovary, spleen, testis, thymus, thyroid gland, and uterus were carefully collected, weighed, and documented before being kept in 10% neutral formalin buffer (10% NBF).
# [1] = female SD rats, s.c. 10.0 mg/kg daily x14 d, n=6
# [2] = female SD rats, single s.c. 1.0 mg/kg, n=5
# [3] = female SD rats, single s.c. 10.0 mg/kg, n=5
# [4] = female SD rats, single s.c. 100.0 mg/kg, n=5
# [5] = male SD rats, s.c. 10.0 mg/kg daily x14 d, n=6
# [6] = male SD rats, single s.c. 1.0 mg/kg, n=5
# [7] = male SD rats, single s.c. 10.0 mg/kg, n=5
# [8] = male SD rats, single s.c. 100.0 mg/kg, n=5
smiles,measurement,setting,value
"CC[C@H](C)[C@H](NC(=O)[C@H](CO)NC(=O)CNC(=O)[C@H](CC(C)C)NC(=O)[C@@H](NC(=O)CNC(=O)[C@H](Cc1ccccc1)NC(=O)[C@H](CC(C)C)NC(=O)CN)C(C)C)C(=O)N[C@@H](C)C(=O)N[C@@H](CCCCN)C(=O)N[C@@H](Cc1c[nH]cn1)C(=O)N[C@H](C(=O)N[C@@H](CC(C)C)C(=O)N1CCC[C@H]1C(=O)N[C@@H](Cc1c[nH]cn1)C(=O)N[C@H](C(=O)N[C@H](C(=O)N1CCC[C@H]1C(=O)N[C@H](C(=O)N[C@H](C(=O)N[C@@H](C)C(=O)N[C@@H](CCC(=O)O)C(=O)N[C@@H](CCCCN)C(=O)N[C@@H](CC(C)C)C(N)=O)[C@@H](C)CC)C(C)C)C(C)C)C(C)C)C(C)C [F3, Caerin 1.9] (H-GLFGVLGSIAKHVLPHVVPVIAEKL-NH2)",gross necropsy findings,"SD rats, s.c. 10.0 mg/kg daily x14 d, all rats",diffuse subcutaneous bleeding at the injection site
same,influence on absolute and relative organ weight,"SD rats, single or repeated s.c. injections",no influence
same,gross necropsy findings,"SD rats, single s.c. 100.0 mg/kg",skin scab and thickening at the administration site in all male rats and four female rats
same,"Adrenals, absolute weight",[1],0.0793 ± 0.0101 g
same,Body weight,[1],233.55 ± 16.03 g
same,"Brain, absolute weight",[1],1.9517 ± 0.0244 g
same,"Heart, absolute weight",[1],1.1247 ± 0.1287 g
same,"Kidneys, absolute weight",[1],1.7017 ± 0.123 g
same,"Liver, absolute weight",[1],7.5278 ± 0.6229 g
same,"Ovaries, absolute weight",[1],0.093 ± 0.0151 g
same,"Spleen, absolute weight",[1],0.6908 ± 0.0750 g
same,"Thymus, absolute weight",[1],0.427 ± 0.0886 g
same,"Thyroid, absolute weight",[1],0.0242 ± 0.0053 g
same,"Uterus, absolute weight",[1],0.4797 ± 0.1336 g
same,"Adrenals, absolute weight",[2],0.0728 ± 0.0097 g
same,Body weight,[2],238.86 ± 7.94 g
same,"Brain, absolute weight",[2],2.0504 ± 0.0552 g
same,"Heart, absolute weight",[2],1.1086 ± 0.1559 g
same,"Kidneys, absolute weight",[2],1.9364 ± 0.118 g
same,"Liver, absolute weight",[2],7.7464 ± 0.2893 g
same,"Ovaries, absolute weight",[2],0.1036 ± 0.0242 g
same,"Spleen, absolute weight",[2],0.57 ± 0.1214 g
same,"Thymus, absolute weight",[2],0.5216 ± 0.0746 g
same,"Thyroid, absolute weight",[2],0.0282 ± 0.0029 g
same,"Uterus, absolute weight",[2],0.6212 ± 0.0948 g
same,"Adrenals, absolute weight",[3],0.0758 ± 0.0114 g
same,Body weight,[3],243.48 ± 10.53 g
same,"Brain, absolute weight",[3],2.0232 ± 0.044 g
same,"Heart, absolute weight",[3],0.999 ± 0.0943 g
same,"Kidneys, absolute weight",[3],1.8596 ± 0.1438 g
same,"Liver, absolute weight",[3],7.3692 ± 0.709 g
same,"Ovaries, absolute weight",[3],0.096 ± 0.0182 g
same,"Spleen, absolute weight",[3],0.5508 ± 0.0854 g
same,"Thymus, absolute weight",[3],0.535 ± 0.0762 g
same,"Thyroid, absolute weight",[3],0.0338 ± 0.005 g
same,"Uterus, absolute weight",[3],0.4664 ± 0.1167 g
same,"Adrenals, absolute weight",[4],0.076 ± 0.0116 g
same,Body weight,[4],238.86 ± 9.44 g
same,"Brain, absolute weight",[4],1.9918 ± 0.0665 g
same,"Heart, absolute weight",[4],1.0914 ± 0.0821 g
same,"Kidneys, absolute weight",[4],1.924 ± 0.0685 g
same,"Liver, absolute weight",[4],7.8582 ± 0.5028 g
same,"Ovaries, absolute weight",[4],0.108 ± 0.0223 g
same,"Spleen, absolute weight",[4],0.545 ± 0.0571 g
same,"Thymus, absolute weight",[4],0.478 ± 0.0725 g
same,"Thyroid, absolute weight",[4],0.0344 ± 0.0057 g
same,"Uterus, absolute weight",[4],0.5842 ± 0.0922 g
same,"Adrenals, absolute weight",[5],0.0612 ± 0.0041 g
same,Body weight,[5],342.57 ± 13.86 g
same,"Brain, absolute weight",[5],2.062 ± 0.1162 g
same,"Epididymides, absolute weight",[5],1.0408 ± 0.0584 g
same,"Heart, absolute weight",[5],1.5727 ± 0.082 g
same,"Kidneys, absolute weight",[5],2.5043 ± 0.0600 g
same,"Liver, absolute weight",[5],9.9218 ± 0.6297 g
same,"Spleen, absolute weight",[5],0.741 ± 0.1802 g
same,"Testis, absolute weight",[5],3.3857 ± 0.1596 g
same,"Thymus, absolute weight",[5],0.4433 ± 0.0724 g
same,"Thyroid, absolute weight",[5],0.0358 ± 0.0092 g
same,"Adrenals, absolute weight",[6],0.0564 ± 0.0078 g
same,Body weight,[6],380.74 ± 8.63 g
same,"Brain, absolute weight",[6],2.163 ± 0.0999 g
same,"Epididymides, absolute weight",[6],0.9464 ± 0.0677 g
same,"Heart, absolute weight",[6],1.485 ± 0.1408 g
same,"Kidneys, absolute weight",[6],2.8174 ± 0.3469 g
same,"Liver, absolute weight",[6],11.4326 ± 0.5122 g
same,"Spleen, absolute weight",[6],0.7378 ± 0.14 g
same,"Testis, absolute weight",[6],3.328 ± 0.2025 g
same,"Thymus, absolute weight",[6],0.545 ± 0.1054 g
same,"Thyroid, absolute weight",[6],0.0494 ± 0.0051 g
same,"Adrenals, absolute weight",[7],0.0654 ± 0.0073 g
same,Body weight,[7],397.34 ± 21.46 g
same,"Brain, absolute weight",[7],2.181 ± 0.1198 g
same,"Epididymides, absolute weight",[7],0.9564 ± 0.0348 g
same,"Heart, absolute weight",[7],1.728 ± 0.2013 g
same,"Kidneys, absolute weight",[7],3.151 ± 0.1131 g
same,"Liver, absolute weight",[7],12.5468 ± 0.8106 g
same,"Spleen, absolute weight",[7],0.8204 ± 0.1012 g
same,"Testis, absolute weight",[7],3.2666 ± 0.0813 g
same,"Thymus, absolute weight",[7],0.6256 ± 0.1022 g
same,"Thyroid, absolute weight",[7],0.0498 ± 0.0093 g
same,"Adrenals, absolute weight",[8],0.066 ± 0.0075 g
same,Body weight,[8],394.58 ± 14.44 g
same,"Brain, absolute weight",[8],2.1528 ± 0.0816 g
same,"Epididymides, absolute weight",[8],0.9956 ± 0.0459 g
same,"Heart, absolute weight",[8],1.6352 ± 0.0401 g
same,"Kidneys, absolute weight",[8],2.9858 ± 0.1294 g
same,"Liver, absolute weight",[8],12.2242 ± 0.7073 g
same,"Spleen, absolute weight",[8],0.793 ± 0.109 g
same,"Testis, absolute weight",[8],3.4182 ± 0.3029 g
same,"Thymus, absolute weight",[8],0.6608 ± 0.082 g
same,"Thyroid, absolute weight",[8],0.0482 ± 0.0075 g
